The values that follow come from patent US20020147136A1, “Compounds for targeting endothelial cells, compositions containing the same and methods for their use” (priority 2000, published 2002).

Test [1] concerns the target Neuropilin-1/Fc. Kind of test: Fluorescence polarization binding to NP-1/Fc. As to conditions: Oregon Green-labeled ligand 5-20 nM, 37° C., D-PBS pH 7.4; different experiments. As to the method:
The ability of various compositions comprising TKPPR monomers or multimers to bind to NP-1/Fc and KDR-Fc was evaluated using FP. The binding studies of various Oregon Green (OG)-labeled compounds comprising TKPPR monomers or multimers and related compounds with Neuropilin-1/Fc, and KDR-Fc (both from R&D Systems), were carried out at 37° C. in D-PBS buffer (pH 7.4). FP values (mP) for each substrate was measured by titrating the ligand (5-20 nM) with receptor protein using a Jolley Research and Consulting FPM-1 fluorescence Polarization analyzer. In each of these experiments the observed polarization values were plotted against receptor concentration. The mP values for 100% binding of tracer labeled ligand to receptor protein was calculated using the software provided by the vendor.
(In general: In fluorescence polarisation assays a small probe gives low polarisation when free and higher when bound to something large.)

Test [2] deals with NP-1/Fc. Kind of test: Inhibition of 125I-VEGF165 binding to NP-1/Fc. As to the method:
The ability of various compositions comprising TKPPR monomers or multimers to inhibit ^125I-VEGF binding to NP-1 was evaluated using NP-1/Fc. Competitive binding assays with microtiter plates coated with NP-1/Fc (R&D sytems) were performed using ^125I-VEGF165 as radioligand (Amersham Pharmacia Biotech Cat. No. IM274, Specific Activity: 1000-2500 Ci/mmol). […] Plates (Nunc MaxiSorp white opaque Microtiter plate [C-bottom, 437796]) were coated by incubating the wells with 75 µl of a solution containing 3 μlg/mL NP-1/Fc in D-PBS/0.1% NaAzide overnight at 4° C. after covering with sealing tape (Dynex, VWR Cat. No. 62402-931). […] All points were derived from triplicate wells, and for each set of replicates in NP-1/Fc-coated wells, a companion set in the absence of the receptor was included. For competitive binding, a series of unlabelled competitor concentrations were prepared in a 250 pM solution of ^1251-VEGF165 in assay buffer Solutions were added to 1.2 ml polypropylene tubes conforming to the microtiter format (Costar Cat. No. 29442-602), and transferred from these tubes to microtiter wells, without further dilution, using a multichannel pipettor. After addition of the appropriate solutions, microtiter plates were incubated at 4° C. for 2 hours. […] The plates were blotted dry and 25 μl deionized water and 100 μl scintillation fluid (Optiphase SuperMix, Wallac) were added to each well. Plates were agitated using a Plate Shaker (Hyperion, Cat. No. 4030-100F) for 3-5 minutes and were then counted using a Microplate Scintillation Counter (Wallac Microbeta Trilux) A set of serially diluted 125I-VEGF165 standard wells ranging from 200 to 0.04 pM were included with each experiment to aid in quantification of the amount of radiolabel bound.

The subject of test [3] is Human Umbilical Vein Endothelial Cells (HUVECS).
Experimental: The ability of compositions comprising a TKPPR monomer and a TKPPR multimer to inhibit ^125I-VEGF binding to endothelial cells was evaluated using HUVECs.
Test [4] concerns the target T1, KDR-Fc (Homo sapiens, UniProt P35968).
T1 construct: purchased R&D Systems
Kind of test: Inhibition of 125I-VEGF165 binding to KDR-Fc. As to conditions: at the highest concentrations tested.

What is called Kd is the free concentration of one partner at which half of the binding sites on the other are occupied at equilibrium, for simple one-to-one binding. Read a low Kd as higher affinity. As usually defined, the IC50 is the concentration needed to halve the response being measured. Higher therefore signals lower potency.

T1 sequence (P35968 with tags, fused parts or gaps limits assumed): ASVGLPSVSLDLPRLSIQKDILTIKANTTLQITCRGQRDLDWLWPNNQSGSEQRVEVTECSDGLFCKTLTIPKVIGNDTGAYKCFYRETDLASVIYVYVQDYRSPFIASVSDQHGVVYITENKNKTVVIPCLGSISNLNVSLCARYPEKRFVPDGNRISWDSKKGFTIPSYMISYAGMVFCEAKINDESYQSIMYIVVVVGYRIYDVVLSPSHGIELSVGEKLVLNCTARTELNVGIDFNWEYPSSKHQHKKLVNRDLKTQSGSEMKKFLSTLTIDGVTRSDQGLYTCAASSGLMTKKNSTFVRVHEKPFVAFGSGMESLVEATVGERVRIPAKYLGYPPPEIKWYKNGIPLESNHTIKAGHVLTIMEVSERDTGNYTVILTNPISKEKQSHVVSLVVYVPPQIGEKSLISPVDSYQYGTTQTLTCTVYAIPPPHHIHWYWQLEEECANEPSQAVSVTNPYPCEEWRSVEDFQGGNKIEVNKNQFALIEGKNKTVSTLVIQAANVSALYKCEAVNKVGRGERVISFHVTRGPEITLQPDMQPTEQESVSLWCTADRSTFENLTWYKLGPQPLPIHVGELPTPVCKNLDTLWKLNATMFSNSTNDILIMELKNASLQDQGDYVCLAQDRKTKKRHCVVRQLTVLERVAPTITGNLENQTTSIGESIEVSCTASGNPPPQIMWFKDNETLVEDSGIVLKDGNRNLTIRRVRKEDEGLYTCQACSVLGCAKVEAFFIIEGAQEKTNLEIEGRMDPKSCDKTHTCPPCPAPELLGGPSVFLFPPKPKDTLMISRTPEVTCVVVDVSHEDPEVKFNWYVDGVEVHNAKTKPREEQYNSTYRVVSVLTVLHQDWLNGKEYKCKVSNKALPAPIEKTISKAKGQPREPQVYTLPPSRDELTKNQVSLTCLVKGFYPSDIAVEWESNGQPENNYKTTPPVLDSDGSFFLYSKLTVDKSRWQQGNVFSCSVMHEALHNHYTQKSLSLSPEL

Regarding `C/C(=N\O)C(C)(C)NOCCNC(C)(C)/C(CCNC(=O)CCCCCC(=O)NCC(=O)N(CCC(=O)NCC(=O)N(CCC(=O)NCCOCCOCC(=O)N[C@H](C(=O)N[C@@H](CCCCN)C(=O)N1CCC[C@H]1C(=O)N1CCC[C@H]1C(=O)N[C@@H](CCCNC(=N)N)C(=O)O)[C@@H](C)O)CCC(=O)NCCOCCOCC(=O)N[C@H](C(=O)N[C@@H](CCCCN)C(=O)N1CCC[C@H]1C(=O)N1CCC[C@H]1C(=O)N[C@@H](CCCNC(=N)N)C(=O)O)[C@@H](C)O)CCC(=O)NCC(=O)N(CCC(=O)NCCOCCOCC(=O)N[C@H](C(=O)N[C@@H](CCCCN)C(=O)N1CCC[C@H]1C(=O)N1CCC[C@H]1C(=O)N[C@@H](CCCNC(=N)N)C(=O)O)[C@@H](C)O)CCC(=O)NCCOCCOCC(=O)N[C@H](C(=O)N[C@@H](CCCCN)C(=O)N1CCC[C@H]1C(=O)N1CCC[C@H]1C(=O)N[C@@H](CCCNC(=N)N)C(=O)O)[C@@H](C)O)=N/O` [BRU-326], the Kd in test [1] was 25 to 50 nM. The “fold more potent than the monomer” value in test [2] is reported as 230 to 330 fold. Moreover, the IC50 in test [2] (250 pM 125I-VEGF165, 4° C., 2 hours) was determined as 130 nM; in test [3] it was 10 µM. In test [4], the “inhibition of 125I-VEGF165 binding to KDR” value is on record as “none”.
